Experimental data taken from patent EP0369391A2, “N-substituted amides” (BOEHRINGER INGELHEIM PHARMACEUTICALS INC., priority 1988, dated 1990).
Where “and” joins values, the source holds several entries; their conditions need not be identical. Identical values can stand only once. Like-named read-outs stand apart in the source and are kept apart here.

What was measured:
Human Cathepsin G = biological target: T1, Human Cathepsin G (Homo sapiens, UniProt P08311); experiment: Selectivity assay: Human Cathepsin G; assay type: biochemical; details: IC50 of 5 or greater is considered inactive
T1 sequence (P08311 21-244): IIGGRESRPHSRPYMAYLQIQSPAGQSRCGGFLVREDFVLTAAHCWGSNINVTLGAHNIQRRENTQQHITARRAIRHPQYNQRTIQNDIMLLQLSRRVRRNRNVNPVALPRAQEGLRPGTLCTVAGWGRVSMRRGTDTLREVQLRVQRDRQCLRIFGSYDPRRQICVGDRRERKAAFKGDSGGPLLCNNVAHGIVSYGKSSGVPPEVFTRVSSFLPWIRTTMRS

Polio 3C - Proteinase = Polio 3C - Proteinase (Poliovirus type 1, UniProt P03300); experiment: biochemical
Sequence of Polio 3C - Proteinase (P03300 1566-1748 limits assumed): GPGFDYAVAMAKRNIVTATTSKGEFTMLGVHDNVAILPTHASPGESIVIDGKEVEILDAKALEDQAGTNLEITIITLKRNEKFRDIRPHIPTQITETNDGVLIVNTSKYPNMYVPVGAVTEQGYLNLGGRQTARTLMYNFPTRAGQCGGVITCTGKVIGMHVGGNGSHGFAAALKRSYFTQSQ

Human Cathepsin B = Human Cathepsin B (Homo sapiens, UniProt P07858); experiment: Selectivity assay: Human Cathepsin B; assay type: biochemical; details: IC50 of 5 or greater is considered inactive
APTT = experiment: Selectivity assay: APTT; details: IC50 of 5 or greater is considered inactive
[1] = biological target: Tissue Plasminogen Activator (Homo sapiens, UniProt P00750); experiment: Selectivity assay: Tissue Plasminogen Activator; assay type: biochemical; details: IC50 of 5 or greater is considered inactive
Sequence of Tissue Plasminogen Activator (P00750 36-562): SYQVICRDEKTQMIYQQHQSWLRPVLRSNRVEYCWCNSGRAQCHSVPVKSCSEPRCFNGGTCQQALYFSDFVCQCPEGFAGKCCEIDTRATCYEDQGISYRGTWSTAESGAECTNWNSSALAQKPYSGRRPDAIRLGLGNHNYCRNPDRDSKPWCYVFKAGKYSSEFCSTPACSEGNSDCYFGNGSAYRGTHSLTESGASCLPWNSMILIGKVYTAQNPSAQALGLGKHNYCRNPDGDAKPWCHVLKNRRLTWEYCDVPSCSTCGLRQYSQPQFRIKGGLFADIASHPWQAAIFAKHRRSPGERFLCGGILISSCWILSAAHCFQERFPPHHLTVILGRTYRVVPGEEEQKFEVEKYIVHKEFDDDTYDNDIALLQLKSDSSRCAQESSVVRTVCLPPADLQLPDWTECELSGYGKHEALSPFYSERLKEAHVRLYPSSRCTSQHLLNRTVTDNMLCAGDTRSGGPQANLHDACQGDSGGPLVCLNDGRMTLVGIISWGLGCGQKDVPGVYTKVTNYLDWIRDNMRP

Human Urokinase = Human Urokinase (Homo sapiens, UniProt P00749); experiment: Selectivity assay: Human Urokinase; assay type: biochemical; details: IC50 of 5 or greater is considered inactive
Human Renin = biological target: T2, Human Renin (Homo sapiens, UniProt P00797); experiment: Selectivity assay: Human Renin; assay type: biochemical; details: IC50 of 5 or greater is considered inactive
T2 sequence (P00797 67-406): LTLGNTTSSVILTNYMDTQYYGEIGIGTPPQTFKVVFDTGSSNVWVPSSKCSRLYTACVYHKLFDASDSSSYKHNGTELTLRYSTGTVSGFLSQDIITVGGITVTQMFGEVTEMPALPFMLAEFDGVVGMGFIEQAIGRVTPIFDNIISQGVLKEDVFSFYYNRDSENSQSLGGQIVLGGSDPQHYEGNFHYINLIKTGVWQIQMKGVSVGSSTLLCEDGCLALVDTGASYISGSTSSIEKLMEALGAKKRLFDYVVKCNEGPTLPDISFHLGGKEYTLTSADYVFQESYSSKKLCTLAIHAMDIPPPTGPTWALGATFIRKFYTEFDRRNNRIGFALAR

Human C1 Esterase = biological target: T3, Human C1 Esterase (Homo sapiens, UniProt P09871); experiment: Selectivity assay: Human C1 Esterase; assay type: biochemical; details: IC50 of 5 or greater is considered inactive
T3 sequence (P09871 16-688): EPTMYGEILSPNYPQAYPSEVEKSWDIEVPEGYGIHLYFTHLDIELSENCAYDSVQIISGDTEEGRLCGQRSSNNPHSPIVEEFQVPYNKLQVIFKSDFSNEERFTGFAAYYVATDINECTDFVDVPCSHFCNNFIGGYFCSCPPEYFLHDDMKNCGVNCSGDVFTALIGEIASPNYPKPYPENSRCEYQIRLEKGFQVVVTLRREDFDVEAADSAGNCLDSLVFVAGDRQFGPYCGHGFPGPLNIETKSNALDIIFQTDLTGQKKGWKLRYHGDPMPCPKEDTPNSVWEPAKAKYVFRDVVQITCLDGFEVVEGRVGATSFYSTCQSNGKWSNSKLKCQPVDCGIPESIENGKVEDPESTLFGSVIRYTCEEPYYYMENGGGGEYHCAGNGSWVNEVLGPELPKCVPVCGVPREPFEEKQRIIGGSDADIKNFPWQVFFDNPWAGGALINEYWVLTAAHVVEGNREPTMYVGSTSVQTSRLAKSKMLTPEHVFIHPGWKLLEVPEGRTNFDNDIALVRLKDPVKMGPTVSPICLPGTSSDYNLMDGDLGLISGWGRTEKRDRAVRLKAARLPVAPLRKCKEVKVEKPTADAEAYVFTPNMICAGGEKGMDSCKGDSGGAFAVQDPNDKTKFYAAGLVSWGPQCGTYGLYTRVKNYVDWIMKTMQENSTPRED

PT = details: IC50 of 5 or greater is considered inactive
Total Complement = experiment: Selectivity assay: Total Complement; details: IC50 of 5 or greater is considered inactive
[2] = biological target: T4, Human sputum elastase ( HSE ) (Homo sapiens, UniProt P08246); experiment: Elastase Inhibition - In Vitro Method (hydrolysis of MeO-Suc-Ala-Ala-Pro-Val-pNA, microtiter format); assay type: biochemical; details: for inhibition at 5 µg/mL: 5ug/mL compound; for IC50: 0.5 mM substrate, 15 minutes pre-incubation
T4 construct: Human sputum elastase ( HSE ) (Elasten Products Co., Pacific, Mo.); purchased Elasten Products Co., Pacific, Mo; host or cells: human sputum (by the name of the product)
T4 sequence (P08246 30-267): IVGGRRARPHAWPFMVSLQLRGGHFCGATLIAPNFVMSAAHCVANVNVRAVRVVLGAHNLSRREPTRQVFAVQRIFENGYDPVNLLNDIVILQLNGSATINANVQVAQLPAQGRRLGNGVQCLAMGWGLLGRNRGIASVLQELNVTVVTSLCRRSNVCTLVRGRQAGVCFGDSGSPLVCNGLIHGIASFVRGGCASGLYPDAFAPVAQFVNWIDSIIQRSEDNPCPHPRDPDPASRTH
Source text: The in vitro assay is based upon the hydrolysis of the commercially available (Sigma Chemical Company, St. Louis, Missouri) substrate methoxy O-succinyl-L-alanyl-L-alanyl-L-prolyl-L-valine para-nitroanilide (MeO-Suc-Ala-Sla-Pro-Val-pNA) and the resulting release of p-nitroanilide (pNA), which absorbs at 405 nm.
• a. Microtiter plates (96 well, flat bottom) • b. Vmax Kinetic Microtiter Plate Reader, equipped with 405 nm filter (Molecular Devices) • c. Microtiter Plate Mixer (Fisher Scientific) • d.
• a. Human sputum elastase ( HSE ) (Elasten Products Co., Pacific, Mo.) dissolved in 1 mg/mL in 0.05 M sodium chloride and frozen (50 µL aliquots) at -20°C until used. • b. Stock solution of MeO-Suc-Ala-Ala-Pro-Val-pNA dissolved at 15 mM in dimethylsulfoxide (DMSO) and frozen (4 mL aliquots) at -20°C until used. • c. Assay buffer: 0.1 M Tris buffer, pH 7.5 containing 0.5 sodium chloride
Screening is performed in microtiter plates, using 0.5 mM substrate and monitored on a Microtiter Reader. Enzyme activity (+/- test compound) is determined as the rate of pNA release (linear regression analysis of slope). Inhibitory activity of the test compound is calculated relative to the uninhibited enzyme control, as follows: [formula]
A frozen aliquot of HSE is thawed and diluted with assay buffer to a stock concentration of 0.02 mg/mL ( 30 x assay concentration). A frozen aliquot of the substrate stock solution is thawed and diluted to 0.5 mM with the assay buffer (final DMSO concentration is […]). 10 µl of the test compound stock solution (or assay buffer) and 10 µl of the HSE stock solution are pipetted into each microtiter well, in duplicate. The plate is mixed well, and pre-incubated at room temperature for 15 minutes. A 300 µl substrate solution is then added to each well and the OD₄₀₅ is followed for approximately 30 minutes.

[3] = biological target: T5, human neutrophil elastase (HNE) (Homo sapiens, UniProt P08246); experiment: Elastase Inhibition - Animal Model (acute hamster hemorrhage model); details: 20 ug i.t. compound, 50 µg HNE i.t., hemorrhage in lung lavage after 18 hours
T5 sequence (P08246 30-247 limits assumed): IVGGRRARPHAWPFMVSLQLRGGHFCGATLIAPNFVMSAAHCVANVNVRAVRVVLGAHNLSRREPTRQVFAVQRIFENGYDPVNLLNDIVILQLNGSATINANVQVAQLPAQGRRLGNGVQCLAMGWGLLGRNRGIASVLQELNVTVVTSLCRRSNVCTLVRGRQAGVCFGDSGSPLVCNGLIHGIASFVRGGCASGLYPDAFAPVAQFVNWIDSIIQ

[4] = 0 % HSA, read-out: % Inhib. (5ug/mL) 0 % HSA
[5] = 0.5 % HSA added, read-out: % Inhib. (5ug/mL) 0.5 % HSA

Row | SMILES | inhibition at 5 µg/mL [2, 4] [%] | inhibition at 5 µg/mL [2, 5] [%] | % Inhib. (20 ug. i.t.) [3] [%] | IC50 ([2]; Table I) [µg/mL] | also measured
1 | CC(C)C(NC(=O)CN(C(=O)[C@@H](NC(=O)c1ccc(C(=O)NS(=O)(=O)c2ccc(Cl)cc2)cc1)C(C)C)C1Cc2ccccc2C1)C(=O)C(F)(F)F (stereo partly shown) [Compound of Table III] | – | – | – | – | IC50 (Human Cathepsin G): > 9.17 µM; IC50 (Polio 3C - Proteinase): > 82.5 µM; IC50 (Human Cathepsin B): > 6.55 µM; IC50 (APTT): >> 100 ug/mL; IC50 [1]: > 6.55 µM; IC50 (Human Urokinase): > 6.55 µM; IC50 (Human Renin): > 6.55 µM; IC50 (Human C1 Esterase): > 6.55 µM; IC50 (PT): >> 100 ug/mL; IC50 (Total Complement): >> 100 ug/mL
2 | CC(C)C(NC(=O)CN(C(=O)[C@@H](NC(=O)c1ccc(C(=O)NS(=O)(=O)c2ccc(Cl)cc2)cc1)C(C)C)C1CCCC1)C(=O)C(F)(F)F (single isomer, unassigned) [Cyclopentyl, p-[p-Cl(C6H4)SO2NHCO](C6H4)CO - (Diastereomer of Above), [[4-(4-Chlorophenyl)sulfonylaminocarbonyl]phenyl-1-oxomethyl]-L-Valyl-N-cyclopentyl-glycyl-N-[3-(1,1,1-trifluoro-4-methyl-2-oxypentyl)]amide] | 99.8 | 99.7 | 99.0 | – | –
3 | CC(C)C(NC(=O)CN(C(=O)[C@@H](NC(=O)c1ccc(C(=O)NS(=O)(=O)c2ccc(Cl)cc2)cc1)C(C)C)C1CC2CCC1C2)C(=O)C(F)(F)F (stereo partly drawn) [[[4-(4-Chlorophenyl)sulfonylaminocarbonyl]phenyl-1-oxomethyl]-L-Valyl-N-(exo-bicyclo[2,2,1]hept-2-yl)glycyl-N-[3-(1,1,1-trifluoro-4-methyl-2-oxypentyl)]amide] | 99.8 | 99.5 | 93.8 | 0.045 | –
4 | COc1ccc(CCN(CC(=O)NC(C(=O)C(F)(F)F)C(C)C)C(=O)[C@@H](NC(=O)c2ccc(C(=O)NS(=O)(=O)c3ccc(Cl)cc3)cc2)C(C)C)cc1OC (stereo partly drawn) [[(4-(4-Chlorophenyl)sulfonylaminocarbonyl]phenyl-1-oxomethyl]-L-Valyl-N-[2-(3,4-dimethoxy)phenethyl] glycyl-N-[3-(1,1,1-trifluoro-4-methyl-2-oxypentyl)] amide] | 98.8 | 96.3 | 90.2 | – | IC50 ([2]; IC50, Table I): 0.103 µM
5 | COc1ccc(CCN(CC(=O)NC(C(=O)C(F)(F)F)C(C)C)C(=O)[C@@H](NC(=O)OCc2ccccc2)C(C)C)cc1OC (stereo partly shown) [3,4 - Dimethoxyphenethyl, CBZ] | 95.1 | 87.8 | – | 0.432 | –
6 | CC(C)C(NC(=O)CN(C(=O)[C@@H](NC(=O)OCc1ccccc1)C(C)C)C1CCCC1)C(=O)C(F)(F)F (stereo partly shown) [Cyclopentyl, CBZ] | 100 | 99.4 | – | 0.082 | –
7 | CC(C)C(NC(=O)CN(C(=O)[C@@H](NC(=O)c1ccc(C(=O)NS(=O)(=O)c2ccc(Cl)cc2)cc1)C(C)C)C1CCCC1)C(=O)C(F)(F)F (single isomer, unassigned) [[[4-(4-Chlorophenyl)sulfonylaminocarbonyl]phenyl-1-oxomethyl]-L-Valyl-N-cyclopentyl-glycyl-N-[3-(1,1,1-trifluoro-4-methyl-2-oxypentyl)]amide] | 100 | 99.8 | 99.2 | – | IC50 ([2]; Table I, read-out: IC50 (converted)): 0.113 µM and 0.0923 µM
